In EP2987533B1, “7-substituted piperazin-1-yl fluoroquinolone compounds, their use in the treatment of cancer, pharmaceutical compositions and a method for preparation” (priority 2014, dated 2016):

Columns and labels:
Type in all cases: cell-based
[1] = system: HS 578T; experiment: NCI one-dose SRB growth assay; conditions: Homo sapiens; HS 578T (Breast Cancer), 10^-5 M, 48 h; read-out: % Growth Inhibition (GI %)
[2] = system: HOP-62; experiment: NCI five-dose SRB growth assay; conditions: Homo sapiens; HOP-62 (Non-Small Cell Lung Cancer), 48 h
[3] = system: PC-3; experiment: NCI five-dose SRB growth assay; conditions: Homo sapiens; PC-3 (Prostate Cancer), 48 h
[4] = system: OVCAR-3; experiment: NCI five-dose SRB growth assay; conditions: Homo sapiens; OVCAR-3 (Ovarian Cancer), 48 h
[5] = system: SF-268; experiment: NCI five-dose SRB growth assay; conditions: Homo sapiens; SF-268 (CNS Cancer), 48 h
[6] = system: M14; experiment: NCI five-dose SRB growth assay; conditions: Homo sapiens; M14 (Melanoma), 48 h
[7] = system: SK-MEL-2; experiment: NCI five-dose SRB growth assay; conditions: Homo sapiens; SK-MEL-2 (Melanoma), 48 h
[8] = system: T-47D; experiment: NCI five-dose SRB growth assay; conditions: Homo sapiens, T47D; T-47D (Breast Cancer), 48 h

SMILES | inhibition at 10 µM [1] [%] | GI50 [2] [µM] | GI50 [3] [µM] | GI50 [4] [µM] | GI50 [5] [µM] | GI50 [6] [µM] | GI50 [7] [µM] | GI50 [8] [µM]
O=c1[nH]cc(F)c(=O)[nH]1 [Compound 5-FU, 5-fluorouracil, reference compound] | > 100 |  |  |  |  |  |  | 
O=C(O)c1cn(C2CC2)c2cc(N3CCN(S(=O)(=O)c4ccc(Cl)c(Cl)c4)CC3)c(F)cc2c1=O [Compound 3b] |  | 4.77 | 2.46 | 3.9 | 4.77 | 4.06 | 3.16 | 3.77
CCn1cc(C(=O)O)c(=O)c2cc(F)c(N3CCN(S(=O)(=O)c4ccc(Cl)cc4Cl)CC3)cc21 [Compound 2a] |  | 3.08 | 2.43 | 2.54 | 3.86 | 3.24 | 2.75 | 3.11
Cc1cc(C)c(S(=O)(=O)N2CCN(c3cc4c(cc3F)c(=O)c(C(=O)O)cn4C3CC3)CC2)c(C)c1 [Compound 6b] |  | 3.65 |  | 3.17 | 3.96 | 4.69 |  | 4.81
CCn1cc(C(=O)O)c(=O)c2cc(F)c(N3CCN(S(=O)(=O)c4ccc(Cl)cc4)CC3)cc21 [Compound 1a] | 81.1 | 4.47 | 2.31 | 3.51 | 3.85 | 2.85 | 2.57 | 3.2
CCn1cc(C(=O)O)c(=O)c2cc(F)c(N3CCN(S(=O)(=O)c4cccc5ccccc45)CC3)cc21 [Compound 7a] |  | 4.6 | 2.66 | 3.69 | 4.39 | 4.37 | 3.55 | 3.35
